From US12492163B2, “9H-fluorene derivatives or their pharmaceutically acceptable salts” (priority 2020, dated 2025)

Tests used:
mGAT2 = mGAT2 (Mus musculus (Mouse), UniProt P31651); experiment: [3H]GABA uptake inhibition, mGAT2 in HEK293 cells; type: cell-based; conditions: inhibitor at 100 μM; remaining reuptake
Method: (§1) Exemplary compounds according to the invention were screened at the Ludwig-Maximilian University of Munich to determine the inhibitory ability towards four mouse GAT transporters (mGAT1-mGAT4). […] The biological material was stably transfected human embryonic kidney HEK293 cells, expressing genes to the appropriate transporters. The generated radioactivity was measured with a liquid scintillation counter. […] These determinations were made according to the procedure described in detail in A. Kragler, G. Höfner, K. T. Wanner, Novel parent structures for inhibitors of the murine GABA transporters mGAT3 and mGAT4, Eur. J. Pharmacol. 519 (2005) 43-47.

C57BL/6J mice = experiment: Morris water maze test (scopolamine); type: in vivo, Mus musculus
Method: (§2) The research was conducted at the Department of Pharmacodynamics, Faculty of Pharmacy, Jagiellonian University in Krakow. All procedures were approved by the 1st and 2nd Local Ethics Committee for Animal Experiments in Krakow (consent no. 53/2017 and 250/2019) and were performed in accordance with the applicable European Union regulation (86/609/EEC). Males of two different strains of domestic mice (Mus musculus) were used in the study: Albino Swiss CD-1 (body weight approx. 20-24 g, age approx. 6 weeks) and C57BL/6J mice (body weight approx. 18-22 g, age approx. 6 weeks). […]
At this stage of the study, each mouse underwent four trials every day (trial interval approx. 1 hour). […] During the acquisition (learning) phase, the time and distance traveled to find the platform were measured. Additionally, the trajectories of movement in the pool were analyzed. […] The latency of finding the place where the platform was previously (during the acquisition/learning phase) was measured, as well as the number of crossings through the zone, where the platform was in the acquisition phase. In addition, the total residence time and distance traveled in the relevant quadrant of the pool (in the NW zone where the platform was at the time of acquisition) were measured, as well as the speed and total distance traveled by the animal during the 60 s of the test. […]

Albino Swiss CD-1 mice = experiment: Spontaneous motor activity test; type: in vivo
Method: as §2, with “weeks). The CD-1 strain was used for the passive avoidance, spontaneous mobility and rotating rod tests, while the C57BL/6J mice were used for the Morris water maze and the Barnes' maze. The animals were kept in standard, appropriately sized cages, divided into groups with a maximum of 10 animals.” for “weeks).”
In this test, the effect of compound JT-3 on the spontaneous motor activity of mice was investigated. […] The apparatus recorded the number of horizontal and vertical movements during the 60-minute test. The mice were put into the actometer, the measurement lasted for 1 hour, during which the camera counted the number of times the light beams were crossed, i.e. motor activity. […]

mGAT1 = mGAT1 (Mus musculus (Mouse), UniProt P31648); experiment: [3H]GABA uptake inhibition, mGAT1 in HEK293 cells; type: cell-based; conditions: GABA reuptake
Method: as §1

[1] = target: horse plasma butyrylcholinesterase (eqBuChE) (Equus caballus (Horse), UniProt P81908); experiment: Ellman's test, inhibition of horse plasma butyrylcholinesterase; type: biochemical
In short: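 Modified Ellman assay: compound preincubated 5 min with enzyme and DTNB in 0.1 M phosphate buffer pH 8.0 at 25° C (eqBuChE) or 36° C (hBuChE), then butyrylthiocholine added; absorbance change at 412 nm read after 5 min. Screening at 10 μM (eqBuChE) or 1 μM (hBuChE); IC50 by non-linear regression, triplicates.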

mGAT2, sequence (P31651 whole entry): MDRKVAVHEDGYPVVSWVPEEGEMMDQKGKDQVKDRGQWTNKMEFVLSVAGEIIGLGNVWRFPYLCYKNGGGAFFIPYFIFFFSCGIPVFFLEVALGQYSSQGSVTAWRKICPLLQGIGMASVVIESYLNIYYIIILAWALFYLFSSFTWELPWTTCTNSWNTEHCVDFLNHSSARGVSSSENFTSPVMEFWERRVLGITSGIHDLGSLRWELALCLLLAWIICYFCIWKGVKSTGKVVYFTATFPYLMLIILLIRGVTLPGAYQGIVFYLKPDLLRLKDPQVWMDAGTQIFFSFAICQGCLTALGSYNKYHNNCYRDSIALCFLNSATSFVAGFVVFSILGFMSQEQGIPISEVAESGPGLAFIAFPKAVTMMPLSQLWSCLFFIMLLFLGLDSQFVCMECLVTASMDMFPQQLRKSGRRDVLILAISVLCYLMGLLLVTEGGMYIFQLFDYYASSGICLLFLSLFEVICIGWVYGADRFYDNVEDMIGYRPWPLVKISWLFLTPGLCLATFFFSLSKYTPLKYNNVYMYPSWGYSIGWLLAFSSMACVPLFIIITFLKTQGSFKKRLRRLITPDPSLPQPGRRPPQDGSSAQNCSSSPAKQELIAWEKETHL
horse plasma butyrylcholinesterase (eqBuChE), sequence (P81908 whole entry): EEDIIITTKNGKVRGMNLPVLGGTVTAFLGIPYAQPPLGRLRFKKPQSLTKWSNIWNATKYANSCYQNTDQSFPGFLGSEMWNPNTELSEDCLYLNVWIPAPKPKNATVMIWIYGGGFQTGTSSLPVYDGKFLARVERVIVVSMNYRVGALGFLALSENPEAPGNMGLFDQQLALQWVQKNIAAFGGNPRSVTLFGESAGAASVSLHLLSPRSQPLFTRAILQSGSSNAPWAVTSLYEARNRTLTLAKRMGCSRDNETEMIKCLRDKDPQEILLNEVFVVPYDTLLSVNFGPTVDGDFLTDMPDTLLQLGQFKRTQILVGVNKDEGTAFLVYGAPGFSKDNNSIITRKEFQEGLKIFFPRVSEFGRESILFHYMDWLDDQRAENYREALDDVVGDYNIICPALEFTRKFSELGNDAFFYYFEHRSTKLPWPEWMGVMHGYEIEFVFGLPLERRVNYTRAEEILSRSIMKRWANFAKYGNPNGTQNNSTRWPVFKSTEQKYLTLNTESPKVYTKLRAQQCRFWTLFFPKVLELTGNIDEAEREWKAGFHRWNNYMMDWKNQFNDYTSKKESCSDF

`O[C@H](CNCC1CC1)[C@H](Cc1ccccc1)NC1c2ccccc2-c2ccccc21` [JT-3, (2R,3S)-3-((9H-fluoren-9-yl)amino)-1-((cyclopropylmethyl)amino)-4-phenylbutan-2-ol] was tested, and the “percentage of [3H]GABA reuptake retained, mGAT2” value (mGAT2) was 51%, the “latency to find the hidden platform, acquisition phase vs scopolamine control” value (C57BL/6J mice; 10 mg/kg i.p., fifth day of the test, p<0.01) was “statistically significant difference” and the “recall phase parameters (time, crossings, distance, entries in NW zone)” value (C57BL/6J mice; seventh day, 10 mg/kg i.p. on days 1-6) was “did not affect any of the parameters studied”. For the same compound, the “effect on spontaneous motor activity (number of movements in 60 min)” value (Albino Swiss CD-1 mice; 10 mg/kg i.p.) was “Neither of these doses affected the motility of the animals”, the “effect on spontaneous motor activity (number of movements in 60 min)” value (Albino Swiss CD-1 mice; 30 mg/kg i.p.) was “Neither of these doses affected the motility of the animals” and the “pIC50 (+/−SEM) mGAT1” value (mGAT1) was 4.96. The IC50 [1] was 313 nM.
